Experimental findings from patent US12263171B2, “7-, 8-, and 10-substituted amino triazolo quinazoline derivatives as adenosine receptor antagonists, pharmaceutical compositions and their use” (Merck Sharp & Dohme LLC, priority 2018, dated 2025) are described below.

Assay [1] concerns the target human A2a adenosine receptor (Homo sapiens (Human), UniProt P29274). The assay can be described thus: A2a receptor affinity radioligand binding assay ([3H] SCH58261, membranes from HEK293 or CHO cells). The following applies: unstarred values: radioligand binding. Summed up:
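Displacement of tritiated SCH58261 (working dilution 4 nM) from recombinant human A2a receptor membranes (HEK293 or CHO), 60 min at room temperature in Tris pH 7.4/MgCl2 buffer after 15–30 min compound preincubation. Scintillation counting after filtration; normalized percent effect fitted 4-parameter logistic for IC50.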

For assay [2], the target named is human A2b adenosine receptor (Homo sapiens (Human), UniProt P29275). The assay can be described thus: A2B antagonism in cAMP cell-based assay (LANCE cAMP, HEK293 cells, 600 nM adenosine). The following applies: for IC50: values marked *: cAMP cell-based assay. The protocol:
Measurement of A2A and A2B Antagonism in cAMP Cell-Based Assay
All subsequent liquid additions were performed using a multichannel pipettor. […] After this time 5 μL of either 300 nM or 600 nM adenosine (Sigma Cat. No. A9251) for A2A and A2B respectively was added and incubated for 30 minutes at 37° C. and 5% CO2 in a humidified environment. At this time detection mix was prepared by combining the LANCE Eu-W8044 labeled streptavidin and. Biotin-cAMP in detection buffer according to the manufacturers protocol. […] Curve fitting of the percent effect data versus the log of compound concentration used a 4-parameter concentration response curve fitting algorithm to calculate IC50 values.

Chain of human A2b adenosine receptor (P29275 whole entry): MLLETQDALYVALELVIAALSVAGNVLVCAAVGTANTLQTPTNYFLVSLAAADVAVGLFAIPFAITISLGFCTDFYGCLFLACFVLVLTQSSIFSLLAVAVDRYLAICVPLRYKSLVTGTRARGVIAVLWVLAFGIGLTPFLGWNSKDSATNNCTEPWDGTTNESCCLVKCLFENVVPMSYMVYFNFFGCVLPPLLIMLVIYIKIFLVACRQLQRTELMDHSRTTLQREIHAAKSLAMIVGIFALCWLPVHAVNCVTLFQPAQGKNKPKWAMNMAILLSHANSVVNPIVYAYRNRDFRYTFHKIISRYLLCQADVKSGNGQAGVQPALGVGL
Chain of human A2a adenosine receptor (P29274 whole entry): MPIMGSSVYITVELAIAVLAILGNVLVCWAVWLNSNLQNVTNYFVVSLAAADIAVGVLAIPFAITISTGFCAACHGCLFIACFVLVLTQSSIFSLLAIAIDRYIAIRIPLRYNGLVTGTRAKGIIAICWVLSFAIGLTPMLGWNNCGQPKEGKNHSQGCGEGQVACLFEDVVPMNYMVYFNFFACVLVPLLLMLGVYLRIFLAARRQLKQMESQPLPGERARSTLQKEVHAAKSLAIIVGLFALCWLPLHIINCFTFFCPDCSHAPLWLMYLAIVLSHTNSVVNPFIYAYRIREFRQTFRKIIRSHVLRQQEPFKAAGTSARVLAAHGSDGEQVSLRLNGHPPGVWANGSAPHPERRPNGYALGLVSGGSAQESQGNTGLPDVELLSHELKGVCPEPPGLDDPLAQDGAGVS

With `COc1cccc2c1nc(N)n1nc(C3CN(c4cnn(CC(F)(F)F)c4)CC(F)(F)C3)nc21` (single isomer, unassigned) [Example 155B], the IC50 in assay [1] came out at 0.0007 µM; in assay [2], 0.301 µM.
The corresponding values for `COc1cccc2c1nc(N)n1nc(C3CN(c4cnn(CC(C)(C)O)c4)CC(F)(F)C3)nc21` (single isomer, unassigned) [Example 156B, (R or S)-1-(4-(5-(5-amino-7-methoxy-[1,2,4]triazolo[1,5-c]quinazolin-2-yl)-3,3-difluoropiperidin-1-yl)-1H-pyrazol-1-yl)-2-methylpropan-2-ol] are 0.0022 µM and 1.39 µM.
The corresponding values for `CC[C@@H]1CC[C@H](c2nc3c4cccc(OC)c4nc(N)n3n2)CN1c1cnn(CC(C)(C)O)c1` (single isomer, unassigned) [Example 216D] are 0.0024 µM and 0.491 µM.
In assay [1], `COc1ccc2c(c1)nc(N)n1nc([C@H]3C[C@H](C(F)(F)F)CN(c4cnn(CC(C)(C)O)c4)C3)nc21` (single isomer, unassigned) [Example 218A, 1-(4-((3S,5S or 3R,5R)-3-(5-amino-8-methoxy-[1,2,4]triazolo[1,5-c]quinazolin-2-yl)-5-(trifluoromethyl)piperidin-1-yl)-1H-pyrazol-1-yl)-2-methylpropan-2-ol] came in with a concentration for half-maximal inhibition (IC50) of 0.0507 µM. Also, the “*A2B cAMP % inh. @ 10000 nM” value in assay [2] (@ 10000 nM, marked *) is listed as 9% inh. @ 10000 nM*.
Regarding `COc1ccc2c(c1)nc(N)n1nc([C@@H]3C[C@H](C)CN(c4cnn(C(C)(C)CO)c4)C3)nc21` (single isomer, unassigned) [Example 222A], the IC50 in assay [1] stood at 0.00132 µM; in assay [2], 0.815 µM.
In the case of `COc1cccc2c1nc(N)n1nc([C@@H]3CCCN(c4cnn(C)c4C(F)(F)F)C3)nc21` [Example 2, (R)-7-methoxy-2-(1-(1-methyl-5-(trifluoromethyl)-1H-pyrazol-4-yl)piperidin-3-yl)-[1,2,4]triazolo[1,5-c]quinazolin-5-amine], the results for the IC50 in assay [1] and in assay [2] were 0.001 µM and 0.763 µM, respectively.
In the same order, the values of `COc1cccc2c1nc(N)n1nc([C@@H]3CCCN(c4cnn(C(F)F)c4)C3)nc21` [Example 3, (R)-2-(1-(1-(difluoromethyl)-1H-pyrazol-4-yl)piperidin-3-yl)-7-methoxy-[1,2,4]triazolo[1,5-c]quinazolin-5-amine] are 0.0013 µM and 0.0426 µM.
Consider `CCn1cc(N2CCC[C@@H](c3nc4c5cccc(OC)c5nc(N)n4n3)C2)cn1` [Example 4, (R)-2-(1-(1-ethyl-1H-pyrazol-4-yl)piperidin-3-yl)-7-methoxy-[1,2,4]triazolo[1,5-c]quinazolin-5-amine], for which the IC50 in assay [1] worked out at 0.0014 µM; in assay [2] it was 0.0495 µM.
Regarding `COc1cccc2c1nc(N)n1nc([C@@H]3CCCN(c4cnn(C(C)C)c4)C3)nc21` [Example 5, (R)-2-(1-(1-isopropyl-1H-pyrazol-4-yl)piperidin-3-yl)-7-methoxy-[1,2,4]triazolo[1,5-c]quinazolin-5-amine], the IC50 amounted to 0.0024 µM in assay [1] and 0.0395 µM in assay [2].
For the compound `COc1cccc2c1nc(N)n1nc([C@@H]3CCCN(c4cnn(C(C)(C)C)c4)C3)nc21` [Example 6, (R)-2-(1-(1-(tert-butyl)-1H-pyrazol-4-yl)piperidin-3-yl)-7-methoxy-[1,2,4]triazolo[1,5-c]quinazolin-5-amine], the figures for the IC50 in assay [1] and in assay [2] were 0.0013 µM and 0.03 µM, respectively.
Consider `COc1cccc2c1nc(N)n1nc([C@@H]3CCCN(c4cnn(C5CC5)c4)C3)nc21` [Example 7, (R)-2-(1-(1-cyclopropyl-1H-pyrazol-4-yl)piperidin-3-yl)-7-methoxy-[1,2,4]triazolo[1,5-c]quinazolin-5-amine], for which the concentration for half-maximal inhibition (IC50) in assay [1] came to 0.0014 µM; in assay [2], 0.0385 µM.
The corresponding values for `COc1cccc2c1nc(N)n1nc([C@@H]3CCCN(c4cnn(CC5CCC5)c4)C3)nc21` [Example 8, (R)-2-(1-(1-(cyclobutylmethyl)-1H-pyrazol-4-yl)piperidin-3-yl)-7-methoxy-[1,2,4]triazolo[1,5-c]quinazolin-5-amine] are 0.0014 µM and 0.211 µM.
In the same order, the values of `COc1cccc2c1nc(N)n1nc([C@@H]3CCCN(c4cnn(C)c4C)C3)nc21` [Example 10, (R)-2-(1-(1,5-dimethyl-1H-pyrazol-4-yl)pipiperidin-3-yl)-7-methoxy-[1,2,4]triazolo[1,5-c]quinazolin-5-amine] are 0.0015 µM and 0.252 µM.
In the same order, the values of `COc1cccc2c1nc(N)n1nc([C@@H]3CCCN(c4c(C)nn(C)c4C)C3)nc21` [Example 11, (R)-7-methoxy-2-(1-(1,3,5-trimethyl-1H-pyrazol-4-yl)piperidin-3-yl)-[1,2,4]triazolo[1,5-c]quinazolin-5-amine] are 0.0008 µM and 3.7 µM.
For the compound `COc1cccc2c1nc(N)n1nc([C@@H]3CCCN(c4cnn5ncccc45)C3)nc21` [Example 12, (R)-7-methoxy-2-(1-(pyrazolo[1,5-b]pyridazin-3-yl)-piperidin-3-yl)-[1,2,4]triazolo[1,5-c]quinazolin-5-amine], the IC50 amounted to 0.0006 µM in assay [1] and 0.104 µM in assay [2].
In the same order, the values of `COc1cccc2c1nc(N)n1nc([C@@H]3CCCN(c4cnn5c4CCC5)C3)nc21` [Example 13, (R)-2-(1-(5,6-dihydro-4H-pyrrolo[1,2-b]pyrazol-3-yl)piperidin-3-yl)-7-methoxy-[1,2,4]triazolo[1,5-c]quinazolin-5-amine] are 0.0009 µM and 0.112 µM.
The corresponding values for `COc1cccc2c1nc(N)n1nc([C@@H]3CCCN(c4cnn(CCF)c4)C3)nc21` [Example 14, (R)-2-(1-(1-(2-fluoroethyl)-1H-pyrazol-4-yl)piperidin-3-yl)-7-methoxy-[1,2,4]triazolo[1,5-c]quinazolin-5-amine] are 0.0007 µM and 0.031 µM.
Take `CCn1ncc(N2CCC[C@@H](c3nc4c5cccc(OC)c5nc(N)n4n3)C2)c1C` [Example 15, (R)-2-(1-(1-ethyl-5-methyl-1H-pyrazol-4-yl)piperidin-3-yl)-7-methoxy-[1,2,4]triazolo[1,5-c]quinazolin-5-amine]: the results for the half-maximal inhibitory concentration (IC50) in assay [1] and in assay [2] were 0.0005 µM and 0.147 µM, respectively.
The corresponding values for `COc1cccc2c1nc(N)n1nc([C@@H]3CCCN(c4cnn(CC5CC5)c4)C3)nc21` [Example 16, (R)-2-(1-(1-(cyclopropylmethyl)-1H-pyrazol-4-yl)piperidin-3-yl)-7-methoxy-[1,2,4]triazolo[1,5-c]quinazolin-5-amine] are 0.0008 µM and 0.0928 µM.
Turning to `COc1cccc2c1nc(N)n1nc([C@@H]3CCCN(c4cnn(C5CCC5)c4)C3)nc21` [Example 18, (R)-2-(1-(1-cyclobutyl-1H-pyrazol-4-yl)piperidin-3-yl)-7-methoxy-[1,2,4]triazolo[1,5-c]quinazolin-5-amine], the IC50 stood at 0.001 µM in assay [1] and 0.0464 µM in assay [2].
The corresponding values for `COc1cccc2c1nc(N)n1nc([C@@H]3CCCN(c4cnn5c(C)cccc45)C3)nc21` [Example 19, (R)-7-methoxy-2-(1-(7-methylpyrazolo[1,5-a]pyridin-3-yl)piperidin-3-yl)-[1,2,4]triazolo[1,5-c]quinazolin-5-amine] are 0.0013 µM and 0.0709 µM.
In the same order, the values of `COc1cccc2c1nc(N)n1nc([C@@H]3CCCN(c4cnn(CC(C)(C)OC)c4)C3)nc21` [Example 22, (R)-7-methoxy-2-(1-(1-(2-methoxy-2-methylpropyl)-1H-pyrazol-4-yl)piperidin-3-yl)-[1,2,4]triazolo[1,5-c]quinazolin-5-amine] are 0.0016 µM and 0.102 µM.
As to `COc1cccc2c1nc(N)n1nc([C@@H]3CCCN(c4cnn([C@@H]5CCC[C@H](O)[C@@]5(C)O)c4)C3)nc21` [Example 27, (1S,2S,6R)-6-(4-((R)-3-(5-amino-7-methoxy-[1,2,4]triazolo[1,5-c]quinazolin-2-yl)piperidin-1-yl)-1H-pyrazol-1-yl)-1-methylcyclohexane-1,2-diol], the IC50 came to 0.002 µM in assay [1] and 0.0403 µM in assay [2].
As for `COc1cccc2c1nc(N)n1nc([C@@H]3CCCN(c4cnn(C(C)(C)C(=O)O)c4)C3)nc21` [Example 28, (R)-2-(4-(3-(5-amino-7-methoxy-[1,2,4]triazolo[1,5-c]quinazolin-2-yl)piperidin-1-yl)-1H-pyrazol-1-yl)-2-methylpropanoic acid], the IC50 in assay [1] is 0.0063 µM; in assay [2], 0.0483 µM.
In the same order, the values of `COc1cccc2c1nc(N)n1nc([C@@H]3CCCN(c4cnn([C@H]5CC[C@H](O)C5)c4)C3)nc21` [Example 29, (1S,3S)-3-(4-((R)-3-(5-amino-7-methoxy-[1,2,4]triazolo[1,5-c]quinazolin-2-yl)piperidin-1-yl)-1H-pyrazol-1-yl)cyclopentan-1-ol] are 0.0013 µM and 0.0247 µM.
Turning to `COc1cccc2c1nc(N)n1nc([C@@H]3CCCN(c4cnn(C5CC6(COC6)C5)c4)C3)nc21` [Example 31, (R)-2-(1-(1-(2-oxaspiro[3.3]heptan-6-yl)-1H-pyrazol-4-yl)piperidin-3-yl)-7-methoxy-[1,2,4]triazolo[1,5-c]quinazolin-5-amine], the IC50 in assay [1] was 0.0508 µM; in assay [2], 1.7 µM.
